{
  "source": "patent US10300064B2",
  "about": "“Organic compounds” (INTRA-CELLULAR THERAPIES, INC., priority 2014, dated 2019)",
  "key": {"[1]": {"assay": "Pharmacokinetic study in mice (plasma and brain availability)", "assay_type": "in vivo", "conditions": "single oral dose 10 mg/kg PO, 0.25-4h, FIG. 1", "experimental": "FIG. 1 illustrats the plasma and brain levels in mice dosed with 10 mg/kg P.O. of the compound of Example 1 over time.\nMice are given a single oral dose of the compound to be tested (10 mg/kg, PO) and plasma and brain availability are measured (0.25-4h) using HPLC and LC-MS using methods analogous to those described in Zhao et al., J. Chromatogr. B. Analyt. Technol. Biomed. Life Sci. (2005) 819(1):73-80 and Appels, N. M., et al., Rapid Commun. Mass Spec. 2005. 19(15): p. 2187-92."}, "Wistar rats": {"tested_on": "Wistar rats", "assay": "Object recognition task, memory performance of Wistar rats", "assay_type": "in vivo, rat", "conditions": "male Wistar rats, oral, 2 h before learning", "experimental": "The Effects of Treatment with PDE2 Inhibitors on Memory Performance of Wistar Rats in the Object Recognition Task\nThe memory-enhancing effects of the compound of Example 1 are tested in an animal model of cognition, the object recognition task. See, Ennaceur, A., Delacour, J., 1988. A new one-trial test for neurobiological studies of memory in rats. 1: Behavioral data. Behav. Brain Res. 31, 47-59. Rats remember which object they have explored in a previous trial when they are tested one hour later. However, when a 24 h inter-trial interval is used, they are not able to remember which object was presented to them in the first trial. It is tested whether the compound of Example 1 would attenuate this time-induced object memory deficit, when given 2 h before the first trial. The compounds are given to 2-3-months-old male Wistar rats.\nThe compound of Example 1 is injected orally (2 ml/kg) 2 h before learning, at doses of 0, 0.3, 1, 3 and 10 mg/kg."}, "r-hPDE2A": {"target": "T1, r-hPDE2A (Homo sapiens, UniProt O00408)", "T1 construct": "host or cells: HEK293 cells, transient transfection; soluble cytosolic fraction used", "T1 sequence (O00408 whole entry)": "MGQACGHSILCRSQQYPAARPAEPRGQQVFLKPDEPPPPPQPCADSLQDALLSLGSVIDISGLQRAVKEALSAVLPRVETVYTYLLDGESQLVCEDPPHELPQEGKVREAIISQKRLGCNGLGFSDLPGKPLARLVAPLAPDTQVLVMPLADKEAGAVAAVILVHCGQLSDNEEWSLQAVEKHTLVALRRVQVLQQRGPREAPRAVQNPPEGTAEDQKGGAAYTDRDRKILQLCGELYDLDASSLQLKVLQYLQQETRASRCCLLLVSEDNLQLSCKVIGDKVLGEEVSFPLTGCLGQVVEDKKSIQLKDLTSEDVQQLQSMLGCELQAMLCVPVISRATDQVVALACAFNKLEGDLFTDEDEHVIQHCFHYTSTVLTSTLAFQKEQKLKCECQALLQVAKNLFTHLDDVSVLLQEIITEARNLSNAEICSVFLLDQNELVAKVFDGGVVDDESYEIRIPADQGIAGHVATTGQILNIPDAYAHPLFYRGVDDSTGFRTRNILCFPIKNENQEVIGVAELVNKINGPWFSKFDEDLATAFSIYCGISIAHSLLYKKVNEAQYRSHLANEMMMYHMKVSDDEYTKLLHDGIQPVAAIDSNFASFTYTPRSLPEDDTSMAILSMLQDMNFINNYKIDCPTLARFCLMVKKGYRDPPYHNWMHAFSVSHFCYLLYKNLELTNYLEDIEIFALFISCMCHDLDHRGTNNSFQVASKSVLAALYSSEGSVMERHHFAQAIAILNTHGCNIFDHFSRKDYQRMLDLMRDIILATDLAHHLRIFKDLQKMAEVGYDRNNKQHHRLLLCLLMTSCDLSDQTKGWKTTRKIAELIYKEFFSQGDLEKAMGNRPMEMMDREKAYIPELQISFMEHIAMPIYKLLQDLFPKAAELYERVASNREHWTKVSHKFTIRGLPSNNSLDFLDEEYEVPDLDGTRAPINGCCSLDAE", "assay": "Measurement of PDE2 inhibition in vitro (IMAP fluorescence polarization, FL-cAMP substrate)", "assay_type": "biochemical", "conditions": "1 μM cGMP", "experimental": "Measurement of PDE2 Inhibition In Vitro\nr-hPDE2A (Accession No. NM_002599, Homo sapiens phosphodiesterase 2A, cGMP-stimulated, transcript variant 1) A mammalian expression cloning vector with recombinant cDNA copy of the gene is purchased from Origene. Protein is expressed via transient transfection of HEK293 cells. The cells are harvested at 48 hours after transfection, washed once with TBS buffer (50 mM Tris-HCl, pH 7.5, 150 mM NaCl), then lysed by sonication in cold homogenization buffer (50 mM Tris-HCl, pH 7.5, 5 mM MgCl2, lx protease inhibitor cocktail). The homogenate is centrifuged for […] at 15,000 g at 4° C. to obtain the soluble cytosolic fraction. The protein concentration of the cytosol is determined using BCA Protein Assay Kit (Pierce) with bovine serum albumin as a standard.\nPDE2A is assayed with FL-cAMP as substrate. An enzyme titration is first performed to determine the working concentration of PDE. The concentration of the enzyme giving activity of 100 ΔmP in the absence of inhibitor is deemed an appropriate working concentration for PDE.\nPDE enzyme is diluted in a standard reaction buffer (10 mM Tris-HCl pH 7.2, 10 mM MgCl2, 0.1% BSA, 0.05% NaN3) according to the titration curve. For PDE2 assay the reaction buffer is supplemented with 1 μM cGMP to fully activate the enzyme. 99 μl of diluted enzyme solution is added into each well in a flat bottom 96-well polystyrene plate and then 1 μl of test compound dissolved in 100% DMSO is added. The compounds are mixed and pre-incubated with the enzyme for 10 min at room temperature.\nThe FL-cNMP conversion reaction is initiated by addition of substrate (45 nM final). Enzyme and inhibitor mix (16 μl) and substrate solution (4 μl of 0.225 μM) are combined in a 384-well microtiter plate. The reaction is incubated in the dark at room temperature for 15 min. The reaction is halted by addition of 60 μl of binding reagent (1:400 dilution of IMAP beads in binding buffer supplemented with 1:1800 dilution of antifoam) to each well of the 384-well plate. The plate is incubated at room temperature for 1 hour to allow IMAP binding to proceed to completion, and then placed in an Envision multimode microplate reader (PerkinElmer, Shelton, Conn.) to measure the fluorescence polarization (Δmp).\nA decrease in cAMP concentration, measured as decreased Amp, is indicative of inhibition of PDE activity. […] IC50 values are estimated using nonlinear regression software, fitting a four-parameter one-site dose-response model (XLFit; IDBS, Cambridge, Mass.). […]\nThe total fluorescence intensity of each sample well is measured to calculate the average and standard deviation. If the total fluorescence intensity of any sample well is not within the range of Average±3SD, the mp value of that particular well is discarded. […]"}, "PDE11A": {"target": "PDE11A (Homo sapiens, UniProt Q9HCR9)", "sequence (Q9HCR9 whole entry, species assumed)": "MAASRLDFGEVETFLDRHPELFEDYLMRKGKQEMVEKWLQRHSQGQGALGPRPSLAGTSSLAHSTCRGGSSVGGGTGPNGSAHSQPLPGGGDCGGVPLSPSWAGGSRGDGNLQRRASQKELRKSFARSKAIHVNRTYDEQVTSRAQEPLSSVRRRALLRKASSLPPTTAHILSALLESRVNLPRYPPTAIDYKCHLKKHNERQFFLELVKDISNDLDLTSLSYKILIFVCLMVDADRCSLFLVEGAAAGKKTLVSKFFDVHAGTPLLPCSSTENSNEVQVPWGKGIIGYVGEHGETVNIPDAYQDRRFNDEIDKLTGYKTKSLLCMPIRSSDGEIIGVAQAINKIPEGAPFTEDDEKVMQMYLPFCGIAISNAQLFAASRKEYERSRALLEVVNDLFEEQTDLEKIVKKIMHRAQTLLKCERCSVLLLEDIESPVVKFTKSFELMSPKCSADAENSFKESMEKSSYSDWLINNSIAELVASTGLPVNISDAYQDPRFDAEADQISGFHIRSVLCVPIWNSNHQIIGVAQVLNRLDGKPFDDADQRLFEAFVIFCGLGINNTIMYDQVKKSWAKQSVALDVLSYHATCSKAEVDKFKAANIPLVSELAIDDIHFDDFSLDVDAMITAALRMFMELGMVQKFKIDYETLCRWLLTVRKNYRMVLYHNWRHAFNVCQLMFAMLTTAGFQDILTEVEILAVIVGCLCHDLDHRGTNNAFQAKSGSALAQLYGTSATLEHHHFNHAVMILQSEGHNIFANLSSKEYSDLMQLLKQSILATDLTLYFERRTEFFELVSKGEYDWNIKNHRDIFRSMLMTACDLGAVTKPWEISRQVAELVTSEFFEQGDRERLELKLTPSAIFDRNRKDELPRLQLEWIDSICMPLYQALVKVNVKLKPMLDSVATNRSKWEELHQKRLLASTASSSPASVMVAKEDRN", "assay": "Selectivity for PDE2 over PDE11A", "assay_type": "biochemical", "experimental": "(§1) Using the IMAP procedure described or similarly described above, we screened a proprietary PDE-focused compound library to identify novel compounds with nanomolar PDE2 inhibitory activities. […] The compounds are moreover selective for PDE2; the compound of Example 4 is tested and shown to be selective for PDE2 over PDE1, PDE3, PDE4D, PDE5, PDE6, PDE7B, PDE8A, PDE9A, PDE10A and PDE11A by greater than 20-fold."}, "PDE4D": {"target": "PDE4D (Homo sapiens, UniProt Q08499)", "assay": "Selectivity for PDE2 over PDE4D", "assay_type": "biochemical", "experimental": "as §1"}, "PDE8A": {"target": "PDE8A (Homo sapiens, UniProt O60658)", "sequence (O60658 whole entry, species assumed)": "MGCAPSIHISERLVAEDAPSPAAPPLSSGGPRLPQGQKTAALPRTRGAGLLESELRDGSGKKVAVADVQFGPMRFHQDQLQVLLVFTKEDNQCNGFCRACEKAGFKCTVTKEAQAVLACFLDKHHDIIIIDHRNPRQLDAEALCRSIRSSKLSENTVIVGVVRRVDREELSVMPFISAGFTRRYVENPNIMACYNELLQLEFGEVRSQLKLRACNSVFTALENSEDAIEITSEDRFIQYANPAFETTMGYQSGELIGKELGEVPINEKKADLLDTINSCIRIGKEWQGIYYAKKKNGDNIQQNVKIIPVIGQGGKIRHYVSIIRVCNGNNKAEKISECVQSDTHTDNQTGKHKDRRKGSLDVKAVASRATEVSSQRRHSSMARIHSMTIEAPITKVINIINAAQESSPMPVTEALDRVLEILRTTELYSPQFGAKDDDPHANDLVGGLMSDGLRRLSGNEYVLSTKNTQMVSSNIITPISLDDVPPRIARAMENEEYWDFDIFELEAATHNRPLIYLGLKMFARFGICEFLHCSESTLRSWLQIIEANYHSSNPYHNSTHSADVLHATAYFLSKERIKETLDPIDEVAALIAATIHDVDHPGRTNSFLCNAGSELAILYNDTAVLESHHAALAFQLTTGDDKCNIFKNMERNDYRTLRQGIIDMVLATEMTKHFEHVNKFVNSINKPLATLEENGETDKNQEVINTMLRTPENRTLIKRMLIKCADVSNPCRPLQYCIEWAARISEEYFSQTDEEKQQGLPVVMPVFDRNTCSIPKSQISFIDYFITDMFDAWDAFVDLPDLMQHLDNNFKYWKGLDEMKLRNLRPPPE", "assay": "Selectivity for PDE2 over PDE8A", "assay_type": "biochemical", "experimental": "as §1"}, "PDE3": {"tested_on": "PDE3", "assay": "Selectivity for PDE2 over PDE3", "assay_type": "biochemical", "experimental": "as §1"}, "PDE5": {"target": "PDE5 (Homo sapiens, UniProt O76074)", "assay": "Selectivity for PDE2 over PDE5", "assay_type": "biochemical", "experimental": "as §1"}, "PDE10A": {"target": "PDE10A (Homo sapiens, UniProt Q9Y233)", "sequence (Q9Y233 whole entry, species assumed)": "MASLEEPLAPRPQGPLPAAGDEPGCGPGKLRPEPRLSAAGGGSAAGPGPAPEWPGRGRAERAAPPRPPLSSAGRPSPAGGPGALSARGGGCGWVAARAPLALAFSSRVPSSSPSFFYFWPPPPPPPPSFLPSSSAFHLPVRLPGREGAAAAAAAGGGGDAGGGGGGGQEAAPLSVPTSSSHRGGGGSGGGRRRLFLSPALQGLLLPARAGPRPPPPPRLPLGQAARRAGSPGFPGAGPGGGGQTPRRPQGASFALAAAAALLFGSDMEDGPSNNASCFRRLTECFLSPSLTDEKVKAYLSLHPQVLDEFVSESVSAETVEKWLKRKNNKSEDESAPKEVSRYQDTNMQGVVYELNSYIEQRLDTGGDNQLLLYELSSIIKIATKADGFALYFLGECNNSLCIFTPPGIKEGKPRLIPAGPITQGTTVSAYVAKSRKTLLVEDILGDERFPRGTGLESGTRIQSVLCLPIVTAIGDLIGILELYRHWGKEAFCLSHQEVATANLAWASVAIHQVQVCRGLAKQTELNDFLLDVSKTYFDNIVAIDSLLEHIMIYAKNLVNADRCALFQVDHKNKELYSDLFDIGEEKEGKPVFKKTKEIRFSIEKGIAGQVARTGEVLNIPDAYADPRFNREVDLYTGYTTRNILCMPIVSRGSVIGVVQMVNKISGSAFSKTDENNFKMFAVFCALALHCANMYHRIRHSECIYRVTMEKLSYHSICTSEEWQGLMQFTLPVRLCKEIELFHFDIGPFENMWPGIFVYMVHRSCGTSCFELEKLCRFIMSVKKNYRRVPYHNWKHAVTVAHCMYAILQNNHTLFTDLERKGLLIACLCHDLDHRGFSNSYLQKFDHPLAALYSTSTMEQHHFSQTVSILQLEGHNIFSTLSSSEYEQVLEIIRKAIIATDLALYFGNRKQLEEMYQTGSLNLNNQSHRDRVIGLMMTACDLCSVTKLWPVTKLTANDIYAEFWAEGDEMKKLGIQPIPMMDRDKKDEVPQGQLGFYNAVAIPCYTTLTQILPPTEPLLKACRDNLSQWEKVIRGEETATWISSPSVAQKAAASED", "assay": "Selectivity for PDE2 over PDE10A", "assay_type": "biochemical", "experimental": "as §1"}, "PDE6": {"tested_on": "PDE6", "assay": "Selectivity for PDE2 over PDE6", "assay_type": "biochemical", "experimental": "as §1"}, "PDE7B": {"target": "PDE7B (Homo sapiens, UniProt Q9NP56)", "sequence (Q9NP56 whole entry, species assumed)": "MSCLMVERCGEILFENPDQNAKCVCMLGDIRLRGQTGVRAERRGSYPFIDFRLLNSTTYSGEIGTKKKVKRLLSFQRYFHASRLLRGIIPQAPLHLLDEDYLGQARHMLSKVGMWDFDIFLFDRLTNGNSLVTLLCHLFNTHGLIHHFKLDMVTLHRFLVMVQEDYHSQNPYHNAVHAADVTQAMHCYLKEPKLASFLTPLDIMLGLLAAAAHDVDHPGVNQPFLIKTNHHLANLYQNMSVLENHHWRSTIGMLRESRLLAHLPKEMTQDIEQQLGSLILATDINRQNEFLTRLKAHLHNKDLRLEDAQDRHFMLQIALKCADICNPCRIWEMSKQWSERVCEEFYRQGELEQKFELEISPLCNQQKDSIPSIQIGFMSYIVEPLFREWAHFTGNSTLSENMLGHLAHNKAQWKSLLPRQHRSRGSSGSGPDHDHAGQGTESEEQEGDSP", "assay": "Selectivity for PDE2 over PDE7B", "assay_type": "biochemical", "experimental": "as §1"}, "PDE1": {"tested_on": "PDE1", "assay": "Selectivity for PDE2 over PDE1", "assay_type": "biochemical", "experimental": "as §1"}, "PDE9A": {"target": "PDE9A (Homo sapiens, UniProt O76083)", "sequence (O76083 whole entry, species assumed)": "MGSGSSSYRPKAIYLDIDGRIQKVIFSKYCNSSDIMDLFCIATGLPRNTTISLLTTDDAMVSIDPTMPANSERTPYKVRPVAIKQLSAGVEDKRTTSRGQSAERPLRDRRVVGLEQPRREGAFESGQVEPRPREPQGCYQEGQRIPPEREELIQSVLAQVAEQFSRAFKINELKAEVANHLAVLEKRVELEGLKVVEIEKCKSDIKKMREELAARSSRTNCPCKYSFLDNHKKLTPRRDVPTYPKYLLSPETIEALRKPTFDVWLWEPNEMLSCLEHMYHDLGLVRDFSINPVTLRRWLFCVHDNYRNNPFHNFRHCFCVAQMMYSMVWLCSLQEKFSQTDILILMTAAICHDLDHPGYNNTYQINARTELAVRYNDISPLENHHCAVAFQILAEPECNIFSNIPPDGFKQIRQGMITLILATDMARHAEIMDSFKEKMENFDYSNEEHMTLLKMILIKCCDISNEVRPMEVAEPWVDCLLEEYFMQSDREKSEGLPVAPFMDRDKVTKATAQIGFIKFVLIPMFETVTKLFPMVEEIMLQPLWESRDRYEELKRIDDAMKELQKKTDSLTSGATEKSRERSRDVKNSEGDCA", "assay": "Selectivity for PDE2 over PDE9A", "assay_type": "biochemical", "experimental": "as §1"}},
  "data": [
    {"smiles": "Cc1nn(-c2cnn(C)c2-c2ccc(C(F)(F)F)cc2)c2c(N3CCC3)ncnc12", "note": "[Example 1, 7-(Azetidin-1-yl)-3-methyl-1-(1-methyl-5-(4-(trifluoromethyl)phenyl)-1H-pyrazol-4-yl)-1H-pyrazolo[4,3-d]pyrimidine]", "values": [
      {"measurement": "brain access (plasma and brain availability)", "setting": "[1]", "result": "good brain access"},
      {"measurement": "memory improvement (object memory, 24 h inter-trial interval)", "setting": "Wistar rats; 0.3 mg/kg", "result": "intermediate memory improvement"},
      {"measurement": "time-dependent forgetting (object memory, 24 h inter-trial interval)", "setting": "Wistar rats; 1.0 mg/kg", "result": "completely prevent the time-dependent forgetting"},
      {"measurement": "memory improvement (object memory, 24 h inter-trial interval)", "setting": "Wistar rats; 3.0 mg/kg", "result": "intermediate memory improvement"},
      {"measurement": "IC50", "setting": "r-hPDE2A", "result": 23.1, "unit": "nM"}
    ]},
    {"smiles": "COc1ccc(-c2c(-n3nc(C)c4ncnc(N5CCC5)c43)cnn2C)c(C)c1", "note": "[Example 2, 7-(Azetidin-1-yl)-1-(5-(4-methoxy-2-methylphenyl)-1-methyl-1H-pyrazol-4-yl)-3-methyl-1H-pyrazolo[4,3-d]pyrimidine]", "values": [
      {"measurement": "IC50", "setting": "r-hPDE2A", "result": 92, "unit": "nM"}
    ]},
    {"smiles": "Cc1nn(-c2cnn(C)c2-c2ccc(C3CC3)cc2)c2c(N3CCC3)ncnc12", "note": "[Example 3, 7-(Azetidin-1-yl)-1-(5-(4-cyclopropylphenyl)-1-methyl-1H-pyrazol-4-yl)-3-methyl-1H-pyrazolo[4,3-d]pyrimidine]", "values": [
      {"measurement": "IC50", "setting": "r-hPDE2A", "result": 9.5, "unit": "nM"}
    ]},
    {"smiles": "CCc1ccc(-c2c(-n3nc(C)c4ncnc(N5CCC5)c43)cnn2C)cc1", "note": "[Example 4, 7-(Azetidin-1-yl)-1-(5-(4-ethylphenyl)-1-methyl-1H-pyrazol-4-yl)-3-methyl-1H-pyrazolo[4,3-d]pyrimidine]", "values": [
      {"measurement": "selectivity for PDE2 over PDE11A", "setting": "PDE11A", "result": "greater than 20 fold"},
      {"measurement": "selectivity for PDE2 over PDE4D", "setting": "PDE4D", "result": "greater than 20 fold"},
      {"measurement": "selectivity for PDE2 over PDE8A", "setting": "PDE8A", "result": "greater than 20 fold"},
      {"measurement": "selectivity for PDE2 over PDE3", "setting": "PDE3", "result": "greater than 20 fold"},
      {"measurement": "selectivity for PDE2 over PDE5", "setting": "PDE5", "result": "greater than 20 fold"},
      {"measurement": "selectivity for PDE2 over PDE10A", "setting": "PDE10A", "result": "greater than 20 fold"},
      {"measurement": "selectivity for PDE2 over PDE6", "setting": "PDE6", "result": "greater than 20 fold"},
      {"measurement": "selectivity for PDE2 over PDE7B", "setting": "PDE7B", "result": "greater than 20 fold"},
      {"measurement": "selectivity for PDE2 over PDE1", "setting": "PDE1", "result": "greater than 20 fold"},
      {"measurement": "IC50", "setting": "r-hPDE2A", "result": 18.5, "unit": "nM"},
      {"measurement": "selectivity for PDE2 over PDE9A", "setting": "PDE9A", "result": "greater than 20 fold"}
    ]}
  ]
}
